Measurements published in patent US11964984B2, “TXNIP-TRX complex inhibitors and methods of using the same” (CITY OF HOPE, priority 2020, dated 2024).

System: THP1 cells
Test: RNA-seq transcriptome profiling of THP1 cells in high glucose (differential expression, GO, GSEA)
Assay type: cell-based, human
Settings: for biological processes (BPs) suppressed (GSEA): HG treated THP1 cells; for number of downregulated genes, compound+HG versus HG / number of upregulated genes, compound+HG versus HG / rank of TXNIP gene among differentially expressed genes / number of HG-induced genes inhibited by the compound (overlap): THP1, 25 mM glucose; for number of downregulated genes, compound+HG versus HG / number of upregulated genes, compound+HG versus HG / rank of TXNIP gene among differentially expressed genes / functions of downregulated genes (Gene ontology analysis): 5 uM; for number of downregulated genes, compound+HG versus HG / number of upregulated genes, compound+HG versus HG / functions of downregulated genes (Gene ontology analysis): fold change ≥2 and FDR<5%; for rank of TXNIP gene among differentially expressed genes: p-value close to 0; for number of HG-induced genes inhibited by the compound (overlap): 72 hours, 2.5 um compound, FC >2 or <0.5, FDR-adjusted p <0.05; for number of HG upregulated genes downregulated by both C30 and C38: THP1, FC≥1.5 & FDR<5%; for functions of downregulated genes (Gene ontology analysis) / normalized enrichment score (NES), HG-downregulated genes (GSEA) / normalized enrichment score (NES), HG-upregulated genes (GSEA): THP1 in HG; for normalized enrichment score (NES), HG-downregulated genes (GSEA) / normalized enrichment score (NES), HG-upregulated genes (GSEA): with versus without compound
Experimental: FIGS. 10A-10C. C30 and C38 inhibit the same subset of genes induced by high glucose (HG). THP1 cell were cultured in RPMI 1640 medium under 25 mM glucose for 72 hours with […] C30 or C38. Total RNA was prepared and sent for RNA-seq. Differential expression analysis was conducted as described in the Methods. […] FIG. 10A: Overlap between HG-induce genes and C30-inhibited genes in THP1 cells. FIG. 10B: Overlap between HG-induce genes and C38-inhibited genes in THP1 cells. FIG. 10C: Overlap between common genes from FIG. 10A (60 genes) and common genes from FIG. 10B (64 genes).
FIGS. 11A-11B. FIG. 11A: Heatmap of 60 high glucose-responsive and C30/C38-inhibited genes. Differential expression was calculated using these counts with edgeR (5, 6) version 3.0. After correcting for differences in library sizes, a fold change of >1.5 and a p-value of <0.05 were applied to select expressed genes. Overlapped genes were used for generating heatmap using Java TreeView. NG: THP1 under 5 mM glucose; HG: THP1, 25 mM glucose; C30: THP1, 25 mM glucose, 5 uM C30; C38: THP1, 25 mM glucose, 5 uM C38. All are replicates. From top to bottom: HSD11B1, EGR1, NFE2, CCL2, TIFAB, SH2D2A, UHRF1, CD52, TIMP3, TNF, S100P, PAQR4, LY6E, VPS9D-AS, RNASE3, MIR4258, GAS6, LIMD2, MBOAT7, CFD, PKMYT1, CHAC1, MFNG, DEFB1, ICAM2, NT5DC2, GPR35, HINT2, SEPT5-GP1BB, NRSN2, CDH24, SLC37A2, ADAT3, LST1, SPNS3, LTB, H2AFX, FUOM, FAM163A, BATF3, TMEM160, CITED4, MIR3661, TNFSF14, SLC6A9, TONSL, AVEN, SUSD3, TSPO, DDIT4, CKB, SLC22A31, HAAO, MF5SD3, SLC38A5, SIGMAR1, RGMA, DNPH1, ADGRE5, C20orf24, GATA2, RAB37, GDPD5, GAREM2, PIGQ, IMPA2, CRYBB2P1, UCP2, RELB, FOXL2, STC2, HOXA11-AS, MIR1282, RTN2, ZNF511, STARD10, NRM, NF2, ITGB7, POMGNT, KLF10, KLF2, NECAB2, C6orf223, IGFBP4, ACP2, TMEM161A, RHBDD2, YDJC, G0S2, FAM20C, TKTL1, PDIA3P1, HCST, FBXL15, LINC00116, FLNA, TXNIP, MIR3687-1, ARRDC4.
FIG. 21. Volcano plots on gene expression changes induced by TXNIP inhibitors (C30 or C38) under high glucose (HG) conditions in THP1 cells. Gene expression in THP cells grown in HG were treated with and without C30 or C38 and profiled by RNAseq. Expression of RefSeq genes with rpkm≥5 in at least one sample were TMM-normalized and compared in cells treated with HG plus C30 or C38 (C30+HG or C38+HG) versus the cells treated with HG alone using edgeR (v 3.28.1). […] Each dot represents one gene with fold change (in log 2 format) in C30/C38+HG sample vs. HG as x-axis and significance level (in −log 10 format) as y-axis.
FIG. 22. Enriched BPs on DEGs induced by TXNIP inhibitors. […] The enriched BPs were identified at FDR<5% using enrichGO R package and up to 15 BPs with the most significant enrichment are shown as horizontal bar plots. In each bar, number of DEGs in the BP is presented by y-axis and the enrichment significance is represented by different grey-scale colors indicated in the color bar.
FIG. 24. Impact of C30/C38 treatment on HG-regulated genes by GSEA analysis. […] In the analysis for each treatment (C30 or C38), all the expressed genes were ranked based on the signed significance levels, −log10 Pvalue with signs determined by FC (positive if FC>1 and negative if FC<1), on each gene's expression difference between samples with and without treatment. The overall gene expression difference in THP1 cells (in HG condition) treated with or without C30/C38 on these two genesets were analyzed using pre-ranked GSEA analysis.
FIG. 25. […] All the expressed genes were ranked based on the signed significance levels of each gene's expression difference (C30+HG vs. HG). […] In the plot shown, each bubble represents one geneset. […] Genesets related to BPs are represented by solid black bubbles and related to HG regulated genesets are shown as hollow black bubbles.
FIG. 26. […] All the expressed genes were ranked based on the signed significance levels of each gene's expression difference (C38+HG vs. HG). […] In the plot, each bubble represents one geneset. […]

| Structure (SMILES) | biological processes (BPs) suppressed (GSEA) | number of downregulated genes, compound+HG versus HG [genes] | number of upregulated genes, compound+HG versus HG [genes] | rank of TXNIP gene among differentially expressed genes | number of HG-induced genes inhibited by the compound (overlap) [genes] | number of HG upregulated genes downregulated by both C30 and C38 [genes] | functions of downregulated genes (Gene ontology analysis) | normalized enrichment score (NES), HG-downregulated genes (GSEA) | normalized enrichment score (NES), HG-upregulated genes (GSEA) |
| --- | --- | --- | --- | --- | --- | --- | --- | --- | --- |
| COc1cc(N2CC[C@@H](c3ccc4ccccc4c3)[C@H](O)C2)nc(N)n1 [Compound C30] | strongly suppresses BPs related to DNA replication, cell cycle, lipopolysaccharide metabolic process | 571 | 746 | most-significantly downregulated gene | 60 | 23 | substantially inhibit functions related to immune/inflammation response | 1.63 | −1.84 |
| c1ccc(CCNc2ncnc3c2oc2ccccc23)cc1 [Compound C38] | suppressing BPs involved in metabolic process, DNA replication, immune response, splicing | 537 | 741 | most-significantly downregulated gene | 64 | 23 | substantially inhibit functions related to immune/inflammation response | 1.83 | −1.98 |
